{"source": "patent US12642796B2", "about": "“Method and device of treating chronic kidney disease-associated pruritus” (Avior, Inc., priority 2018, dated 2026)", "key": {"C57BL mice": {"test_system": "C57BL mice", "assay": "Effect of nalmefene on SP-induced scratching behavior (Example 2)", "assay_type": "in vivo, mouse", "details": "nalmefene SC 1 hour prior to SP ID 33.7 μg; 30 and 60 minutes after SP, FIG. 3", "method": "Scratching behavior was monitored for 30 and 60 minutes after SP injection. Controls included mice that received PBS instead of SP (N=6, Group 5) and mice that received a placebo dose of PBS and ID dose of SP (N=4, Group 6)."}, "C57BL/6 mice": {"test_system": "C57BL/6 mice", "assay": "SP and nalmefene injection, scratches Groups 10-12, 0-60 minutes (Example 3)", "assay_type": "in vivo, mouse", "method": "Fifteen male C57BL/6 mice received a single intradermal (ID) bolus injection of substance P (SP) or PBS. Group 10 (N=6) received a single 50 μL injection of PBS. Group 11 (N=4) received SP in PBS at a dose of 0.5 mM/50 μl. […] Scratching behavior was video recorded and assessed.\nGroups 10 and 11: All mice were placed in a clear cylindrical enclosure 60 minutes prior to testing to acclimate. An ID bolus injection of SP in PBS was administered. Recording began immediately following injection of SP and recorded for 60 minutes.\nGroup 12: All mice were placed in clear cylinder enclosures for 60 minutes prior to testing to acclimate. A SC bolus injection of nalmefene was administered. 30 minutes after the nalmefene injection, an ID bolus injection of SP in PBS was administered. Recording began immediately following injection of SP and recorded for 60 minutes.\nAnimals in Groups 10-12 were acclimated for 1 hour prior to recording. Behavioral recording lasted for 60 minutes (T0-T60). 6 animals were dosed for Group 12 but only 5 animals were tested due to one animal being excluded as an outlier due to no response to SP injection.\nThe number of scratches per 10-minute time interval for Groups 10-12 is given below in Table 3. The data is also shown graphically in FIG. 4.\nThe number of scratches per 0-30 minute and 30-60 minute time intervals is given below in Table 4 for Group 10 (PBS), Group 11 (0.5 mM SP), and Group 12 (0.75 mg nalmefene). The data is also shown graphically in FIG. 5."}, "[1]": {"details": "Group 12, Nalmefene 0.75 mg SC before SP 0.5 mM ID, 0-30 min"}, "[2]": {"details": "Group 12, Nalmefene 0.75 mg SC before SP 0.5 mM ID, 30-60 min"}, "[3]": {"details": "Group 12, nalmefene 0.075 mg/75 μL SC 30 min prior to SP 0.5 mM/50 μL ID, 0-10 min"}, "[4]": {"details": "Group 12, nalmefene 0.075 mg/75 μL SC 30 min prior to SP 0.5 mM/50 μL ID, 10-20 min"}, "[5]": {"details": "Group 12, nalmefene 0.075 mg/75 μL SC 30 min prior to SP 0.5 mM/50 μL ID, 20-30 min"}, "[6]": {"details": "Group 12, nalmefene 0.075 mg/75 μL SC 30 min prior to SP 0.5 mM/50 μL ID, 30-40 min"}, "[7]": {"details": "Group 12, nalmefene 0.075 mg/75 μL SC 30 min prior to SP 0.5 mM/50 μL ID, 40-50 min"}, "[8]": {"details": "Group 12, nalmefene 0.075 mg/75 μL SC 30 min prior to SP 0.5 mM/50 μL ID, 50-60 min"}}, "note": "Where “and” joins values, the source holds several entries; their conditions need not be identical. Equal values may be shown once.", "data": [{"compound": "C=C1CC[C@@]2(O)[C@H]3Cc4ccc(O)c5c4[C@@]2(CCN3CC2CC2)[C@H]1O5", "note": "[Nalmefene, 6-methylene-6-deoxy-N-cyclopropylmethyl-14 hydroxydihydronormorphine]", "values": [{"measurement": "pruritogenic response to SP", "setting": "C57BL mice", "result": "completely mitigated"}, {"measurement": "Scratches, Avg.", "setting": "C57BL/6 mice; [1]", "result": 8.6}, {"measurement": "Scratches, individual animals", "setting": "C57BL/6 mice; [1]", "result": "10 and 29 and 0 (2×) and 4"}, {"measurement": "Scratches, Avg.", "setting": "C57BL/6 mice; [2]", "result": 2.9}, {"measurement": "Scratches, individual animals", "setting": "C57BL/6 mice; [2]", "result": "1 and 5 and 0 (2×) and 8.5"}, {"measurement": "Scratches, Avg.", "setting": "C57BL/6 mice; [3]", "result": 2}, {"measurement": "Scratches, individual animals", "setting": "C57BL/6 mice; [3]", "result": "10 and 0 (4×)"}, {"measurement": "Scratches, Avg.", "setting": "C57BL/6 mice; [4]", "result": 3}, {"measurement": "Scratches, individual animals", "setting": "C57BL/6 mice; [4]", "result": "0 (3×) and 13 and 2"}, {"measurement": "Scratches, Avg.", "setting": "C57BL/6 mice; [5]", "result": 3.6}, {"measurement": "Scratches, individual animals", "setting": "C57BL/6 mice; [5]", "result": "0 (3×) and 16 and 2"}, {"measurement": "Scratches, Avg.", "setting": "C57BL/6 mice; [6]", "result": 1}, {"measurement": "Scratches, individual animals", "setting": "C57BL/6 mice; [6]", "result": "0 (4×) and 5"}, {"measurement": "Scratches, Avg.", "setting": "C57BL/6 mice; [7]", "result": 1.8}, {"measurement": "Scratches, individual animals", "setting": "C57BL/6 mice; [7]", "result": "0.5 and 5 and 0 (2×) and 3.5"}, {"measurement": "Scratches, Avg.", "setting": "C57BL/6 mice; [8]", "result": 0.1}, {"measurement": "Scratches, individual animals", "setting": "C57BL/6 mice; [8]", "result": "0.5 and 0 (4×)"}, {"measurement": "ability to control scratching behavior, and by extension pruritus", "setting": "C57BL/6 mice; Group 12 vs Groups 10 and 11, 0-60 min", "result": "maintained over the hour"}]}]}
